Laboratory results reported in patent US12252488B2 (Nimbus Saturn, Inc., priority 2021, dated 2025).

molecular target: T1, HPK1 (Homo sapiens, UniProt Q92918); assay: HPK1 biochemical enzyme assay (microfluidic mobility shift assay); details: 1000 uM (1 mM) ATP; Caliper mobility shift; 1.5 nM HPK1; 30 min preincubation; read-out: HPK1 1000UMATP caliper IC50
T1 construct: purchased Invitrogen
Protocol: Example 33. HPK1 Biochemical Enzyme Assay
HPK1 biochemical enzyme assay: HPK1 enzyme inhibition was measured using a microfluidic mobility shift assay. Reactions were performed in a 384-well plate, containing 1.5 nM HPK1 (Invitrogen), in assay buffer (Carna Biosciences; pH 7.4). Test compounds were titrated in ten point curves (top final assay concentration 3 μM), and preincubated with enzyme/substrate mix for 30 min prior to initiation of the reaction by addition of ATP (1 mM final concentration) and substrate (1 μM final concentration; Carna Biosciences) diluted in assay buffer supplemented by MgCl2 (final assay concentration of 5 mM). Following 60 min incubation at RT, the reaction was terminated by addition of 60 μl/well termination buffer (Carna Biosciences) and signal determination using a Caliper EZ Reader (Perkin Elmer, UK).
The compound numbers correspond to the compound numbers in Table 1. Compounds having an activity designated as “A” provided an IC50≤100 nM; compounds having an activity designated as “B” provided an IC50>100 nM and ≤1,000 nM; compounds having an activity designated as “C” provided an IC50>1,000 nM.

T1 sequence (Q92918 whole entry): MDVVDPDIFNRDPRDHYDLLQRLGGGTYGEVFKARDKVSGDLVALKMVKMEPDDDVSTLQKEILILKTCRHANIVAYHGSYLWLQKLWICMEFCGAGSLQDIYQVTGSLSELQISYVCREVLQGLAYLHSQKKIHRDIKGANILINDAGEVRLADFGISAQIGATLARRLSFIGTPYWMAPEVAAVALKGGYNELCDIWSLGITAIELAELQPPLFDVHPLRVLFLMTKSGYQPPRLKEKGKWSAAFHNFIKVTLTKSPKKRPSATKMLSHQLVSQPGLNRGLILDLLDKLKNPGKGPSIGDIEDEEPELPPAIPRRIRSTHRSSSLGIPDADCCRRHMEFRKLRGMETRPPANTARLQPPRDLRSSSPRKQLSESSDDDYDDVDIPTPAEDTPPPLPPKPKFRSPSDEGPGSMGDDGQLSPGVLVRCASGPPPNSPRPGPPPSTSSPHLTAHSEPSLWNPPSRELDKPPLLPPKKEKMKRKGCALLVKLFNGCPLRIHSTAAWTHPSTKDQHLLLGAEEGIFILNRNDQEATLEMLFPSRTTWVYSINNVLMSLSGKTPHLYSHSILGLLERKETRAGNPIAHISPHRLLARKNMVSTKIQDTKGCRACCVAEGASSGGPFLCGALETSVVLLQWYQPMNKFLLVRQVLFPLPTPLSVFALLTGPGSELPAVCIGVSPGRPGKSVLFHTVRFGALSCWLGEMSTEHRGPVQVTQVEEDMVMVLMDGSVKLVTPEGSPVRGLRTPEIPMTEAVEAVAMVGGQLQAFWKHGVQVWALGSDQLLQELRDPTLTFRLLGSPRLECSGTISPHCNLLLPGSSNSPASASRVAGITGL

| Compound | IC50 [µM] |
| --- | --- |
| O=C(Nc1ccc(-c2cc(Nc3ccc(N4CCC(O)CC4)cn3)c3c(=O)[nH]ccc3n2)c(F)c1)[C@@H]1C[C@H]2CC[C@@H]1C2 (racemic) [I-266, (1R,2R,4S)-N-[3-fluoro-4-[4-[[5-(4-hydroxy-1-piperidyl)-2-pyridyl]amino]-5-oxo-6H-1,6-naphthyridin-2-yl]phenyl] norbornane-2-carboxamide] | ≤ 0.1 |
| O=C(Nc1ccc(-c2cc(Nc3ccc(N4CCC(O)CC4)cn3)c3c(=O)[nH]ccc3n2)c(F)c1)[C@H]1C[C@H]2CC[C@@H]1C2 (single isomer, unassigned) [I-261] | ≤ 0.1 |
| O=C(Nc1ccc(-c2cc(Nc3ccc(C4CCOC4)cn3)c3c(=O)[nH]ccc3n2)c(F)c1)C1CCCCC1 (single isomer, unassigned) [I-267, N-[3-fluoro-4-[5-oxo-4-[(5-THF-3-yl-2-pyridyl)amino]-6H-1,6-naphthyridin-2-yl]phenyl] cyclohexane carboxamide] | ≤ 0.1 |
| O=C(Nc1ccc(-c2cc(Nc3ccc(N4CCC(O)CC4)cn3)c3c(=O)[nH]ccc3n2)c(F)c1)[C@@H]1C[C@H]2CC[C@@H]1C2 (single isomer, unassigned) [I-269] | 0.1 to 1 |
| CC(O)(c1ccc(F)c(-c2cc(Nc3ccc(N4CCC(O)CC4)cn3)c3c(=O)[nH]ccc3n2)c1)C(F)(F)F (single isomer, unassigned) [I-273, 2-(2-fluoro-5-(1,1,1-tifluoro-2-hydroxy-propan-2-yl)phenyl)-4-((5-(4-hydroxy-piperidin-1-yl)pyridin-2-yl)amino)-1,6-naphthyridin-5(6H)-one] | ≤ 0.1 |
| CC(O)(c1ccc(F)c(-c2cc(Nc3ccc(N4CCC(O)CC4)cn3)c3c(=O)[nH]ccc3n2)c1)C(F)(F)F (single isomer, unassigned) [I-274, 2-(2-fluoro-5-(1,1,1-hydroxy-propan-2-yl)phenyl)-4-((5-(4-hydroxy-piperidin-1-y)pyridin-2-yl)amino)-1,6-naphthyridin-5(6H)-one] | ≤ 0.1 |
| O=C(Nc1ccc(-c2cc(Nc3ccc(N4CCC(O)CC4)cn3)c3c(=O)[nH]ccc3n2)c(F)c1)[C@H]1C[C@H]2CC[C@@H]1C2 (single isomer, unassigned) [I-275] | ≤ 0.1 |
| O=C(Nc1ccc(-c2cc(Nc3ccc(N4CCC(O)CC4)cn3)c3c(=O)[nH]ccc3n2)c(F)c1)[C@@H]1C[C@H]2CC[C@@H]1C2 (single isomer, unassigned) [I-277] | ≤ 0.1 |
| CCNC(=O)c1ccc(Nc2cc(-c3c(F)cccc3F)nc3cc[nH]c(=O)c23)cc1 [I-4, 4-[[2-(2,6-difluoro-phenyl)-5-oxo-6H-1,6-naphthyridin-4-yl]amino]-N-ethyl-benzamide] | ≤ 0.1 |
| Cc1ccc(F)c(-c2cc(Nc3ccc(N4CCC(O)CC4)cn3)c3c(=O)[nH]ccc3n2)c1 [I-4I] | > 1 |
| O=c1[nH]cc(Br)c2nc(-c3c(F)cccc3F)cc(Nc3ccc(N4CCC(O)CC4)cn3)c12 [I-5, 8-bromo-2-(2,6-difluorophenyl)-4-[[5-(4-hydroxy-1-piperidyl)-2-pyridyl]amino]-6H-1,6-naphthyridin-5-one] | 0.1 to 1 |
| O=c1[nH]ccc2nc(-c3c(F)cccc3F)cc(Nc3ccc(N4CCNCC4)cn3)c12 [I-6, 2-(2,6-difluoro-phenyl)-4-[(5-piperazin-1-yl-2-pyridyl)amino]-6H-1,6-naphthyridin-5-one] | ≤ 0.1 |
| CCNC(=O)c1ccc(Nc2nc(-c3c(F)cccc3F)cc3cc[nH]c(=O)c23)cc1 [I-7, 4-[[3-(2,6-difluorophenyl)-8-oxo-7H-2,7-naphthyridin-1-yl]amino]-N-ethyl-benzamide] | 0.1 to 1 |
| O=c1[nH]ccc2cc(-c3c(F)cccc3F)nc(Nc3ccc(N4CCC(O)CC4)cn3)c12 [I-8, 6-(2,6-difluoro-phenyl)-8-[[5-(4-hydroxy-1-piperidyl)-2-pyridyl]amino]-2H-2,7-naphthyridin-1-one] | 0.1 to 1 |
| CC(C)c1cc(Nc2ccc(N3CCC(O)CC3)cn2)c2c(=O)[nH]ccc2n1 [I-9, 4-[[5-(4-hydroxy-1-piperidyl)-2-pyridyl]amino]-2-isopropyl-6H-1,6-naphthyridin-5-one] | 0.1 to 1 |
| CCNC(=O)c1ccc(Nc2nc(C(C)C)nc3cc[nH]c(=O)c23)cc1 [I-10, N-ethyl-4-[(2-isopropyl-5-oxo-6H-pyrido[4,3-d]pyrimidin-4-yl)amino]benzamide] | 0.1 to 1 |
| O=c1[nH]cnc2nc(-c3c(F)cccc3F)cc(Nc3ccc(N4CCC(O)CC4)cn3)c12 [I-11, 7-(2,6-difluorophenyl)-5-[[5-(4-hydroxy-1-piperidyl)-2-pyridyl]amino]-3H-pyrido[2,3-d]pyrimidin-4-one] | 0.1 to 1 |
| CCNC(=O)c1ccc(Nc2nc(-c3c(F)cccc3F)cc3nc[nH]c(=O)c23)cc1 [I-12, 4-[[7-(2,6-difluorophenyl)-4-oxo-3H-pyrido[4,3-d]pyrimidin-5-yl]amino]-N-ethyl-benzamide] | 0.1 to 1 |

| Compound | IC50 [µM] |
| --- | --- |
| O=c1[nH]cnc2cc(-c3c(F)cccc3F)nc(Nc3ccc(N4CCC(O)CC4)cn3)c12 [I-13, 7-(2,6-difluoro-phenyl)-5-[[5-(4-hydroxy-1-piperidyl)-2-pyridyl]amino]-3H-pyrido[4,3-d] pyrimidin-4-one] | 0.1 to 1 |
| CCNC(=O)c1ccc(Nc2cc(-c3c(F)cccc3F)nc3nc[nH]c(=O)c23)cc1 [I-14, 4-[[7-(2,6-difluoro-phenyl)-4-oxo-3H-pyrido[2,3-d]pyrimidin-5-yl]amino]-N-ethyl-benzamide] | ≤ 0.1 |
| CC(O)c1c[nH]c(=O)c2c(Nc3ccc(N4CCC(O)CC4)cn3)cc(-c3c(F)cccc3F)nc12 (stereo not drawn) [I-15, 2-(2,6-difluorophenyl)-8-(1-hydroxyethyl)-4-[[5-(4-hydroxy-1-piperidyl)-2-pyridyl]amino]-6H-1,6-naphthyridin-5-one] | 0.1 to 1 |
| CC(C)(O)c1c[nH]c(=O)c2c(Nc3ccc(N4CCC(O)CC4)cn3)cc(-c3c(F)cccc3F)nc12 [I-16, 2-(2,6-difluorophenyl)-8-(1-hydroxy-1-methyl-ethyl)-4-[[5-(4-hydroxy-1-piperidyl)-2-pyridyl]amino]-6H-1,6-naphthyridin-5-one] | 0.1 to 1 |
| O=c1[nH]ccc2nc(C3CC3)cc(Nc3ccc(N4CCC(O)CC4)cn3)c12 [I-17, 2-cyclopropyl-4-[[5-(4-hydroxy-1-piperidyl)-2-pyridyl]amino]-6H-1,6-naphthyridin-5-one] | 0.1 to 1 |
| CS(=O)(=O)c1ccc(Nc2cc(-c3c(F)cccc3F)nc3cc[nH]c(=O)c23)nc1 [I-18, 2-(2,6-difluoro-phenyl)-4-[(5-methyl-sulfonyl-2-pyridyl)amino]-6H-1,6-naphthyridin-5-one] | > 1 |
| O=c1[nH]ccc2nc(C3CCCCC3)cc(Nc3ccc(N4CCC(O)CC4)cn3)c12 [I-19, 2-cyclohexyl-4-[[5-(4-hydroxy-1-piperidyl)-2-pyridyl]amino]-6H-1,6-naphthyridin-5-one] | 0.1 to 1 |
| O=c1[nH]ccc2nc(C3CCCC3)cc(Nc3ccc(N4CCC(O)CC4)cn3)c12 [I-20, 2-cyclopentyl-4-[[5-(4-hydroxy-1-piperidyl)-2-pyridyl]amino]-6H-1,6-naphthyridin-5-one] | 0.1 to 1 |
| CC(C)c1cc(Nc2ccc(N3CCNCC3)cn2)c2c(=O)[nH]ccc2n1 [I-21, 2-isopropyl-4-[(5-piperazin-1-yl-2-pyridyl)amino]-6H-1,6-naphthyridin-5-one] | 0.1 to 1 |
| CC(C)c1cc(Nc2ccc(N3CCOCC3)cn2)c2c(=O)[nH]ccc2n1 [I-22, 2-isopropyl-4-[(5-morpholino-2-pyridyl)amino]-6H-1,6-naphthyridin-5-one] | ≤ 0.1 |
| CC(C)c1cc(Nc2ccc(S(C)(=O)=O)cn2)c2c(=O)[nH]ccc2n1 [I-23, 2-isopropyl-4-[(5-methyl-sulfonyl-2-pyridyl)amino]-6H-1,6-naphthyridin-5-one] | 0.1 to 1 |
| O=c1[nH]ccc2nc(-c3c(F)cccc3F)cc(Nc3ccc(S(=O)(=O)N4CCCCC4)cn3)c12 [I-24, 2-(2,6-difluoro-phenyl)-4-[[5-(1-piperidyl-sulfonyl)-2-pyridyl]amino]-6H-1,6-naphthyridin-5-one] | 0.1 to 1 |
| Cc1c[nH]c(=O)c2c(Nc3ccc(N4CCC(O)CC4)cn3)cc(-c3c(F)cccc3F)nc12 [I-25, 2-(2,6-difluorophenyl)-4-[[5-(4-hydroxy-1-piperidyl)-2-pyridyl]amino]-8-methyl-6H-1,6-naphthyridin-5-one] | 0.1 to 1 |
| O=c1[nH]ccc2nc(C3CCC3)cc(Nc3ccc(N4CCC(O)CC4)cn3)c12 [I-26, 2-cyclobutyl-4-[[5-(4-hydroxy-1-piperidyl)-2-pyridyl]amino]-6H-1,6-naphthyridin-5-one] | > 1 |
| CC(C)Cc1cc(Nc2ccc(N3CCC(O)CC3)cn2)c2c(=O)[nH]ccc2n1 [I-28, 4-[[5-(4-hydroxy-1-piperidyl)-2-pyridyl]amino]-2-isobutyl-6H-1,6-naphthyridin-5-one] | 0.1 to 1 |
| CCNC(=O)c1ccc(Nc2cc(C(C)C)nc3cc[nH]c(=O)c23)cc1 [I-29, N-ethyl-4-[(2-isopropyl-5-oxo-6H-1,6-naphthyridin-4-yl)amino] benzamide] | 0.1 to 1 |
| CS(=O)(=O)Cc1ccc(Nc2cc(-c3c(F)cccc3F)nc3cc[nH]c(=O)c23)nc1 [I-30, 2-(2,6-difluoro-phenyl)-4-[[5-(methyl-sulfonyl-methyl)-2-pyridyl]amino]-6H-1,6-naphthyridin-5-one] | 0.1 to 1 |
| CC(C)c1cc(Nc2ccc(S(=O)(=O)N3CCCCC3)cn2)c2c(=O)[nH]ccc2n1 [I-31, 2-isopropyl-4-[[5-(1-piperidyl-sulfonyl)-2-pyridyl]amino]-6H-1,6-naphthyridin-5-one] | 0.1 to 1 |
